What all share (assay): Ras-Raf disruption / FRET / MOA assay (BRAF RBD)
Holding throughout (format): biochemical

In assay [1] the target is KRAS G12D (Homo sapiens, UniProt P01116+P62937, G12D). The conditions noted are these: Ras-Raf disruption, with Cyclophilin A; read-out: KRAS G12D FRET data IC50. The text has this: (§1) Disruption of […] Ras-binding Domain (BRAF^RBD) Interaction with K-Ras by Compounds of the Invention (also Called a FRET Assay or an MOA Assay)
(§2) Note—The following protocol describes a procedure for monitoring disruption of K-Ras G12C (GMP-PNP) binding to BRAF^RBD by a compound of the invention. This protocol may also be executed substituting other Ras proteins or nucleotides, such as K-Ras G12D and K-Ras G13D.
(§3) The purpose of this biochemical assay was to measure the ability of test compounds to facilitate ternary complex formation between a nucleotide-loaded K-Ras isoform and Cyclophilin A; the resulting ternary complex disrupts binding to a BRAF^RBD construct, inhibiting K-Ras signaling through a RAF effector. Data is reported as IC50 values.
(§4) In assay buffer containing 25 mM HEPES pH 7.3, 0.002% Tween20, 0.1% BSA, 100 mM NaCl and 5 mM MgCl2, tagless Cyclophilin A, His6-K-Ras-GMPPNP, and GST-BRAF^RBD were combined in a 384-well assay plate at final concentrations of 25 μM, 12.5 nM, and 50 nM, respectively. Compound was present in plate wells as a 10-point 3-fold dilution series starting at a final concentration of 30 μM. After incubation at 25° C. for 3 hours, a mixture of anti-His Eu-W1024 and anti-GST allophycocyanin was then added to assay sample wells at final concentrations of 10 nM and 50 nM, respectively, and the reaction incubated for an additional 1.5 hours. […] Compounds that facilitate disruption of a K-Ras:RAF complex were identified as those eliciting a decrease in the TR-FRET ratio relative to DMSO control wells.

Assay [2] concerns the target KRAS G12S (Homo sapiens, UniProt P01116+P62937, G12S). The conditions noted are these: Ras-Raf disruption, with Cyclophilin A; read-out: KRAS G12S FRET data IC50.
Text: as §1, §2, §3, §4

For assay [3], the target named is KRAS G12V (Homo sapiens, UniProt P01116+P62937, G12V). The note with it: Ras-Raf disruption, with Cyclophilin A; read-out: KRAS G12V FRET data IC50.
Text: as §1, §2, §3, §4

Assay [4] deals with KRAS G13C (Homo sapiens, UniProt P01116+P62937, G13C). The conditions noted are these: Ras-Raf disruption, with Cyclophilin A; read-out: KRAS G13C FRET data IC50.
Text: as §1, §2, §3, §4

In assay [5] the target is KRAS G13D (Homo sapiens, UniProt P01116+P62937, G13D). The note with it: Ras-Raf disruption, with Cyclophilin A; read-out: KRAS G13D FRET data IC50.
Text: as §1, §2, §3, §4

Assay [6] concerns the target KRAS WT (Homo sapiens, UniProt P01116+P62937). The conditions noted are these: Ras-Raf disruption, with Cyclophilin A; read-out: KRAS WT FRET data IC50.
Text: as §1, §2, §3, §4

Assay [7] has as its target NRAS G12C (Homo sapiens, UniProt P01111+P62937, G12C). The note with it: NRAS G12C; read-out: NRAS G12C FRET data IC50.
Text: as §1, §2, §3, §4

For assay [8], the target named is KRAS G12C (Homo sapiens, UniProt P01116+P62937, G12C). The conditions noted are these: Ras-Raf disruption, with Cyclophilin A; read-out: KRAS G12C FRET data IC50. In a few lines:
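TR-FRET read-out after 1.5 h with anti-His Eu-W1024 (10 nM) and anti-GST APC (50 nM), following 3 h at 25 °C of compound (top 30 μM, 3-fold, 10 points) with 25 μM Cyclophilin A, 12.5 nM GMPPNP-loaded K-Ras G12C and 50 nM BRAF RBD; IC50 reported.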

Each structure is given as a SMILES string. Some results are limits rather than exact numbers.

Broadly, the IC50 is the point on the concentration scale where inhibition reaches its midpoint.

NRAS G12C, sequence (P01111 whole entry G12C): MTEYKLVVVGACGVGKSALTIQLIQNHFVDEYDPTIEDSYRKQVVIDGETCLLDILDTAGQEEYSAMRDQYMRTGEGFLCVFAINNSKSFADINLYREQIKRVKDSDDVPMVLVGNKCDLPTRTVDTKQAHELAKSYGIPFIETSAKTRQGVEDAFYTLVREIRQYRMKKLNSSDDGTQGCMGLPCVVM
NRAS G12C, sequence (P62937 whole entry): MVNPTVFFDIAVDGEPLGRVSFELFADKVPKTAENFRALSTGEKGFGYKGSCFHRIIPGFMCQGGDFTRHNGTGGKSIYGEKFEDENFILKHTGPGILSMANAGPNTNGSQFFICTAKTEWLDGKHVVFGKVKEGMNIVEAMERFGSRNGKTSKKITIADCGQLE
KRAS G13D, sequence (P01116 1-169 isoform P01116-2 G13D limits assumed): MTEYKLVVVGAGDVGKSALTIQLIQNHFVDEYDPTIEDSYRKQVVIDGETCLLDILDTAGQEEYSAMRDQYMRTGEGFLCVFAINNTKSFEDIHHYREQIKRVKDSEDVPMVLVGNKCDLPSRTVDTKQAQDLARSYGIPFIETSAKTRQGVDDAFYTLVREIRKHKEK
KRAS G13D, sequence (P62937 whole entry): as the sequence (P62937 whole entry) above
KRAS G12C, sequence (P01116 1-169 isoform P01116-2 G12C limits assumed): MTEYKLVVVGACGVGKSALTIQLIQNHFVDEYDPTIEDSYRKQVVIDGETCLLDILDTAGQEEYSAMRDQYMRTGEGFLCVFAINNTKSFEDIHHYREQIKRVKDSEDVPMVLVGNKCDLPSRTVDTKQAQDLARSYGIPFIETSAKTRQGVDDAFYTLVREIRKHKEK
KRAS G12C, sequence (P62937 whole entry): as the sequence (P62937 whole entry) above
KRAS G13C, sequence (P01116 1-169 isoform P01116-2 G13C limits assumed): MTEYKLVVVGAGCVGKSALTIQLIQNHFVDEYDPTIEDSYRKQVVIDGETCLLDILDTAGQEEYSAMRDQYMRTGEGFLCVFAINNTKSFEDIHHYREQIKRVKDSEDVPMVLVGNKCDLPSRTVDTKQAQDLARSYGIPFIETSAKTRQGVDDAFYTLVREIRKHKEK
KRAS G13C, sequence (P62937 whole entry): as the sequence (P62937 whole entry) above
KRAS G12S, sequence (P01116 1-169 isoform P01116-2 G12S limits assumed): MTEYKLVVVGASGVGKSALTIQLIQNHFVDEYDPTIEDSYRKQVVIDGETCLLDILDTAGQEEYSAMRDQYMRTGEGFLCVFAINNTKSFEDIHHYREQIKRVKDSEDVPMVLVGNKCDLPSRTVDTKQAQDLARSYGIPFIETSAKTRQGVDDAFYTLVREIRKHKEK
KRAS G12S, sequence (P62937 whole entry): as the sequence (P62937 whole entry) above
KRAS G12D, sequence (P01116 1-169 isoform P01116-2 G12D limits assumed): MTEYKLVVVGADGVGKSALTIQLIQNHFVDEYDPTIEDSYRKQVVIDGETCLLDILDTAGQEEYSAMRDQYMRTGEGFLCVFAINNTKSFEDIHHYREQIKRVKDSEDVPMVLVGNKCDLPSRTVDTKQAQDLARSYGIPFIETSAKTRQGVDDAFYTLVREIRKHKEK
KRAS G12D, sequence (P62937 whole entry, the tested form may be a part): as the sequence (P62937 whole entry) above
KRAS G12V, sequence (P01116 1-169 isoform P01116-2 G12V limits assumed): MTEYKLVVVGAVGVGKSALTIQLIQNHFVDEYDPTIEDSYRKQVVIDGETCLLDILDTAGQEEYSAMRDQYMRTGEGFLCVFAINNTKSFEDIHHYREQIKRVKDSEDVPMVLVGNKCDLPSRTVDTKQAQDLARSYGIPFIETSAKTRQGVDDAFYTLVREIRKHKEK
KRAS G12V, sequence (P62937 whole entry): as the sequence (P62937 whole entry) above
KRAS WT, sequence (P01116 1-169 isoform P01116-2 limits assumed): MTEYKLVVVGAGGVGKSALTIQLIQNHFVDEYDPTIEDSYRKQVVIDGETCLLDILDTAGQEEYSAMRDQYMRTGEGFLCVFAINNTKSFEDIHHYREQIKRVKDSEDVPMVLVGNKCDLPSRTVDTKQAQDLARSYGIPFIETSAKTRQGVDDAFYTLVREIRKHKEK
KRAS WT, sequence (P62937 whole entry): as the sequence (P62937 whole entry) above

Regarding `CCn1c(-c2cccnc2[C@H](C)OC)c2c3cc(ccc31)-c1cccc(c1)C[C@H](NC(=O)[C@H](C(C)C)N(C)C(=O)CCN=C=NCCOC)C(=O)N1CCC[C@H](N1)C(=O)OCC(C)(C)C2` [Example 74], the IC50 in assay [1] was 0.1 to 1 µM; in assay [2], 1 to 10 µM; in assay [3], 1 to 10 µM; in assay [4] it was 0.1 to 1 µM; in assay [5], 1 to 10 µM; in assay [6], 1 to 10 µM. In addition, the IC50 in assay [7] and in assay [8] was 0.01 to 0.1 µM throughout.

For the molecule `CCn1c(-c2cccnc2[C@H](C)OC)c2c3cc(ccc31)-c1cccc(c1)C[C@H](NC(=O)[C@H](C(C)C)N(C)C(=O)[C@H]1CC[C@H](N=C=NCc3ccccc3OC)C1)C(=O)N1CCC[C@H](N1)C(=O)OCC(C)(C)C2` [Example 76], the IC50 in assay [1] is 1 to 10 µM; in assay [2], above 10 µM; in assay [3] it was above 10 µM; in assay [4], 0.1 to 1 µM; in assay [5], above 10 µM; in assay [6], 1 to 10 µM. The IC50 in assay [7] and in assay [8] was 0.1 to 1 µM throughout.

For `CCn1c(-c2cccnc2[C@H](C)OC)c2c3cc(ccc31)-c1cccc(c1)C[C@H](NC(=O)[C@H](C(C)C)N(C)C(=O)[C@H]1C[C@H](N=C=NCc3ccccc3OC)C1)C(=O)N1CCC[C@H](N1)C(=O)OCC(C)(C)C2` [Example 77], the IC50 in assay [1] is 1 to 10 µM; in assay [2], 1 to 10 µM; in assay [3], 1 to 10 µM; in assay [4], 0.01 to 0.1 µM; in assay [5] it was above 10 µM; in assay [6], 1 to 10 µM. The IC50 in assay [7] and in assay [8] was 0.01 to 0.1 µM in each case.

With `CCn1c(-c2cccnc2[C@H](C)OC)c2c3cc(ccc31)-c1cccc(c1)C[C@H](NC(=O)[C@H](C(C)C)N(C)C(=O)[C@H]1C[C@H](N=C=NCCOC)C1)C(=O)N1CCC[C@H](N1)C(=O)OCC(C)(C)C2` [Example 78], the IC50 in assay [1] is 1 to 10 µM; in assay [2] it was 1 to 10 µM; in assay [3], 1 to 10 µM; in assay [4], 0.01 to 0.1 µM; in assay [5], above 10 µM; in assay [6] it was 1 to 10 µM. For the same molecule, the IC50 in assay [7] and in assay [8] was 0.01 to 0.1 µM each time.

With `CCn1c(-c2cccnc2[C@H](C)OC)c2c3cc(ccc31)-c1cc(O)cc(c1)C[C@H](NC(=O)[C@H](C(C)C)N(C)C(=O)c1ncc(NC(=O)[C@@H]3CN3)n1C)C(=O)N1CCC[C@H](N1)C(=O)OCC(C)(C)C2` [Example 83], the IC50 in assay [1] was in the range of 0.1 to 1 µM; in assay [2], 0.01 to 0.1 µM; in assay [3], 0.01 to 0.1 µM; in assay [4], 0.01 to 0.1 µM; in assay [5] it was 0.01 to 0.1 µM; in assay [6], 0.01 to 0.1 µM. Further, the IC50 in assay [7] and in assay [8] was 0.01 to 0.1 µM each time.

With `CCn1c(-c2cccnc2[C@H](C)OC)c2c3cc(ccc31)-c1cc(O)cc(c1)C[C@H](NC(=O)[C@H](C(C)C)N(C)C(=O)c1ncc(NC(=O)[C@H]3CN3)n1C)C(=O)N1CCC[C@H](N1)C(=O)OCC(C)(C)C2` [Example 84], the IC50 in assay [1] was 1 to 10 µM; in assay [2] it was 0.1 to 1 µM; in assay [3], 0.1 to 1 µM; in assay [4], below 0.01 µM; in assay [5] it was 0.1 to 1 µM; in assay [6], 0.1 to 1 µM. For the same molecule, the IC50 in assay [7] and in assay [8] was 0.01 to 0.1 µM in each case.

In the case of `CCn1c(-c2cccnc2[C@H](C)OC)c2c3cc(ccc31)-c1cc(O)cc(c1)C[C@H](NC(=O)[C@H](C(C)C)N(C)C(=O)C1CCN(C(=O)[C@H]3CN3)CC1)C(=O)N1CCC[C@H](N1)C(=O)OCC(C)(C)C2` [Example 86], the IC50 was 0.1 to 1 µM in assay [1]; 0.01 to 0.1 µM in assay [2]; 0.1 to 1 µM in assay [3]; 0.01 to 0.1 µM in assay [4]; 0.01 to 0.1 µM in assay [5]; 0.01 to 0.1 µM in assay [6]. Further, the figures for the IC50 in assay [7] and in assay [8] were below 0.01 µM and 0.01 to 0.1 µM, respectively.

As for `CCn1c(-c2cccnc2[C@H](C)OC)c2c3cc(ccc31)-c1cc(O)cc(c1)C[C@H](NC(=O)[C@H](C(C)C)N(C)C(=O)c1ccc([C@@H]3CN3)nc1)C(=O)N1CCC[C@H](N1)C(=O)OCC(C)(C)C2` [Example 87], the concentration for half-maximal inhibition (IC50) in assay [1] was in the range of 1 to 10 µM; in assay [2], 0.1 to 1 µM; in assay [3], 0.1 to 1 µM; in assay [4], 0.01 to 0.1 µM; in assay [5], 0.1 to 1 µM; in assay [6], 0.1 to 1 µM. In addition, the IC50 in assay [7] and in assay [8] was 0.01 to 0.1 µM each time.

Consider `CCn1c(-c2cccnc2[C@H](C)OC)c2c3cc(ccc31)-c1cc(O)cc(c1)C[C@H](NC(=O)[C@H](C(C)C)N(C)C(=O)C1CCN(C(=O)[C@@H]3CN3)CC1)C(=O)N1CCC[C@H](N1)C(=O)OCC(C)(C)C2` [Example 89], for which the IC50 in assay [1] was 0.1 to 1 µM; in assay [2] it was 0.01 to 0.1 µM; in assay [3], 0.1 to 1 µM; in assay [4], below 0.01 µM; in assay [5] it was 0.01 to 0.1 µM; in assay [6], 0.01 to 0.1 µM. For the same molecule, the IC50 in assay [7] and in assay [8] was 0.01 to 0.1 µM each time.

In the case of `CCn1c(-c2cccnc2[C@H](C)OC)c2c3cc(ccc31)-c1cc(O)cc(c1)C[C@H](NC(=O)[C@H](C(C)C)N(C)C(=O)[C@@H]1CN1)C(=O)N1CCC[C@H](N1)C(=O)OCC(C)(C)C2` [Example 100], the IC50 lay in the range of 0.1 to 1 µM in assay [1]; 0.01 to 0.1 µM in assay [2]; 0.01 to 0.1 µM in assay [3]; 0.01 to 0.1 µM in assay [4]; 0.01 to 0.1 µM in assay [5]; 0.01 to 0.1 µM in assay [6]. Also, the IC50 in assay [7] and in assay [8] was 0.01 to 0.1 µM in each case.

Turning to `CCn1c(-c2cccnc2[C@H](C)OC)c2c3cc(ccc31)-c1cc(O)cc(c1)C[C@H](NC(=O)[C@H](C(C)C)N1CCC3(CN(C(=O)[C@@H]4CN4)C3)C1=O)C(=O)N1CCC[C@H](N1)C(=O)OCC(C)(C)C2` [Example 109], the IC50 is 1 to 10 µM in assay [1]; 0.1 to 1 µM in assay [2]; 0.1 to 1 µM in assay [3]; 0.01 to 0.1 µM in assay [4]; 0.01 to 0.1 µM in assay [5]; 0.01 to 0.1 µM in assay [6]. For the same molecule, the IC50 in assay [7] and in assay [8] was below 0.01 µM throughout.

Consider `CCn1c(-c2cccnc2[C@H](C)OC)c2c3cc(ccc31)-c1cc(O)cc(c1)C[C@H](NC(=O)[C@H](C(C)C)N(C)C(=O)[C@H]1CN1)C(=O)N1CCC[C@H](N1)C(=O)OCC(C)(C)C2` [Example 112], for which the IC50 in assay [1] lay in the range of 0.1 to 1 µM; in assay [2], 0.1 to 1 µM; in assay [3] it was 0.1 to 1 µM; in assay [4], 0.01 to 0.1 µM; in assay [5], 0.1 to 1 µM; in assay [6], 0.01 to 0.1 µM. Besides, the IC50 in assay [7] and in assay [8] was 0.1 to 1 µM throughout.

As for `CCn1c(-c2cccnc2[C@H](C)OC)c2c3cc(ccc31)-c1cc(O)cc(c1)C[C@H](NC(=O)[C@H](C(C)C)N1CCC3(CCN(C(=O)[C@@H]4CN4)C3)C1=O)C(=O)N1CCC[C@H](N1)C(=O)OCC(C)(C)C2` (some centres unmarked) [Example 113], the IC50 in assay [1], in assay [2], in assay [3], in assay [4], in assay [5] and in assay [6] was 0.01 to 0.1 µM in each case. In addition, the IC50 in assay [7] and in assay [8] was below 0.01 µM throughout.

The record behind these values is US20230233569A1 (Revolution Medicines, Inc., priority 2020, published 2023).
